From PubChem BioAssay AID2060901 (Molecular Pharmacology Branch, DTP, NCI, 2025)

System: 422866-222-R5-J1-PDC complex spheroids viability
Experiment: Anticancer human tumor 422866-222-R5-J1-PDC patient-derived pancreatic adenocarcinoma cell line growth inhibition [RAS]
Settings: for IC50: curve of first compound; for viability, T/C: stronger effect = lower value; active = viability on the fitted dose curve at most 10% of control; inactive = the rest
Method in brief: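 Tumour cells grown as complex spheroids with HUVEC endothelial cells and mesenchymal stem cells, treated with RAS pathway inhibitor combinations. Each agent spans half-log steps from near clinical Cmax, or 10 microM where Cmax is unknown.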

[1] = second compound 0.00316 µM, first compound 0.000949 µM
[2] = second compound 0.00316 µM, first compound 0.003 µM
[3] = second compound 0.00316 µM, first compound 0.00949 µM
[4] = second compound 0.00316 µM, first compound 0.03 µM
[5] = second compound 0.00316 µM, first compound 0.0949 µM
[6] = second compound 0.00316 µM, first compound 0.3 µM
[7] = second compound 0.01 µM, first compound 0.000949 µM
[8] = second compound 0.01 µM, first compound 0.003 µM
[9] = second compound 0.01 µM, first compound 0.00949 µM
[10] = second compound 0.01 µM, first compound 0.03 µM
[11] = second compound 0.01 µM, first compound 0.0949 µM
[12] = second compound 0.01 µM, first compound 0.3 µM
[13] = second compound 0.0316 µM, first compound 0.000949 µM
[14] = second compound 0.0316 µM, first compound 0.003 µM
[15] = second compound 0.0316 µM, first compound 0.00949 µM
[16] = second compound 0.0316 µM, first compound 0.03 µM
[17] = second compound 0.0316 µM, first compound 0.0949 µM
[18] = second compound 0.0316 µM, first compound 0.3 µM
[19] = second compound 0.1 µM, first compound 0.000949 µM
[20] = second compound 0.1 µM, first compound 0.003 µM
[21] = second compound 0.1 µM, first compound 0.00949 µM
[22] = second compound 0.1 µM, first compound 0.03 µM
[23] = second compound 0.1 µM, first compound 0.0949 µM
[24] = second compound 0.1 µM, first compound 0.3 µM
[25] = second compound 0.316 µM, first compound 0.000949 µM
[26] = second compound 0.316 µM, first compound 0.003 µM
[27] = second compound 0.316 µM, first compound 0.00949 µM
[28] = second compound 0.316 µM, first compound 0.03 µM
[29] = second compound 0.316 µM, first compound 0.0949 µM
[30] = second compound 0.316 µM, first compound 0.3 µM
[31] = second compound 1 µM, first compound 0.000949 µM
[32] = second compound 1 µM, first compound 0.003 µM
[33] = second compound 1 µM, first compound 0.00949 µM
[34] = second compound 1 µM, first compound 0.03 µM
[35] = second compound 1 µM, first compound 0.0949 µM
[36] = second compound 1 µM, first compound 0.3 µM
[37] = second compound 0.000949 µM, first compound 0.00316 µM
[38] = second compound 0.000949 µM, first compound 0.01 µM
[39] = second compound 0.000949 µM, first compound 0.0316 µM
[40] = second compound 0.000949 µM, first compound 0.1 µM
[41] = second compound 0.000949 µM, first compound 0.316 µM
[42] = second compound 0.000949 µM, first compound 1 µM
[43] = second compound 0.003 µM, first compound 0.00316 µM
[44] = second compound 0.003 µM, first compound 0.01 µM
[45] = second compound 0.003 µM, first compound 0.0316 µM
[46] = second compound 0.003 µM, first compound 0.1 µM
[47] = second compound 0.003 µM, first compound 0.316 µM
[48] = second compound 0.003 µM, first compound 1 µM
[49] = second compound 0.00949 µM, first compound 0.00316 µM
[50] = second compound 0.00949 µM, first compound 0.01 µM
[51] = second compound 0.00949 µM, first compound 0.0316 µM
[52] = second compound 0.00949 µM, first compound 0.1 µM
[53] = second compound 0.00949 µM, first compound 0.316 µM
[54] = second compound 0.00949 µM, first compound 1 µM
[55] = second compound 0.03 µM, first compound 0.00316 µM
[56] = second compound 0.03 µM, first compound 0.01 µM
[57] = second compound 0.03 µM, first compound 0.0316 µM
[58] = second compound 0.03 µM, first compound 0.1 µM
[59] = second compound 0.03 µM, first compound 0.316 µM
[60] = second compound 0.03 µM, first compound 1 µM
[61] = second compound 0.0949 µM, first compound 0.00316 µM
[62] = second compound 0.0949 µM, first compound 0.01 µM
[63] = second compound 0.0949 µM, first compound 0.0316 µM
[64] = second compound 0.0949 µM, first compound 0.1 µM
[65] = second compound 0.0949 µM, first compound 0.316 µM
[66] = second compound 0.0949 µM, first compound 1 µM
[67] = second compound 0.3 µM, first compound 0.00316 µM
[68] = second compound 0.3 µM, first compound 0.01 µM
[69] = second compound 0.3 µM, first compound 0.0316 µM
[70] = second compound 0.3 µM, first compound 0.1 µM
[71] = second compound 0.3 µM, first compound 0.316 µM
[72] = second compound 0.3 µM, first compound 1 µM
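Note: spheroids exposed to compounds for 7 days.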
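Throughout, for viability, T/C: 100% = DMSO vehicle control viability.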

CC1(C)CCC(Nc2ncc(C(F)(F)F)c(-c3c[nH]c4c(P(C)(C)=O)c(C#N)ccc34)n2)CN1 (stereo not drawn) + C=CC(=O)N1CCN(c2nc(OCC3CCCN3C)nc3c(F)c(-c4nc(N)cc(C)c4C(F)(F)F)c(Cl)cc23)C(C)C1
inactive: viability, T/C [1] 27.1% | viability, T/C [2] 29.2% | viability, T/C [3] 25.8% | viability, T/C [4] 25.1% | viability, T/C [5] 27.3% | viability, T/C [6] 28.8% | viability, T/C [7] 23.1% | viability, T/C [8] 20.7% | viability, T/C [9] 28.3% | viability, T/C [10] 24.7% | viability, T/C [11] 26.8% | viability, T/C [12] 28.3% | viability, T/C [13] 24.6% | viability, T/C [14] 24.4% | viability, T/C [15] 22.2% | viability, T/C [16] 23.3% | viability, T/C [17] 27.2% | viability, T/C [18] 27.4% | viability, T/C [19] 24.6% | viability, T/C [20] 22.3% | viability, T/C [21] 25.5% | viability, T/C [22] 23.4% | viability, T/C [23] 26.6% | viability, T/C [24] 27.6% | viability, T/C [25] 20% | viability, T/C [26] 20.3% | viability, T/C [27] 25.5% | viability, T/C [28] 24.6% | viability, T/C [29] 25.8% | viability, T/C [30] 24.5% | viability, T/C [31] 22.1% | viability, T/C [32] 22.3% | viability, T/C [33] 21.1% | viability, T/C [34] 24.2% | viability, T/C [35] 30.4% | viability, T/C [36] 26.2%
< 0.949 nM: IC50 (second compound 0.00316 µM) | IC50 (second compound 0.01 µM) | IC50 (second compound 0.0316 µM) | IC50 (second compound 0.1 µM) | IC50 (second compound 0.316 µM) | IC50 (second compound 1 µM)

CCc1c2c(nc3ccc(O)cc13)-c1cc3c(c(=O)n1C2)COC(=O)[C@]3(O)CC + C=CC(=O)N1CCN(c2nc(OCC3CCCN3C)nc3c(F)c(-c4nc(N)cc(C)c4C(F)(F)F)c(Cl)cc23)C(C)C1
< 0.949 nM: IC50 (second compound 0.00316 µM) | IC50 (second compound 0.01 µM) | IC50 (second compound 0.0316 µM) | IC50 (second compound 0.1 µM) | IC50 (second compound 0.316 µM) | IC50 (second compound 1 µM)
inactive: viability, T/C [1] 25.3% | viability, T/C [2] 21.1% | viability, T/C [3] 15.8% | viability, T/C [4] 15.9% | viability, T/C [5] 15.2% | viability, T/C [6] 11.3% | viability, T/C [7] 24.9% | viability, T/C [8] 20.7% | viability, T/C [9] 18.1% | viability, T/C [10] 18.3% | viability, T/C [11] 12.9% | viability, T/C [12] 10.9% | viability, T/C [13] 25.3% | viability, T/C [14] 18.3% | viability, T/C [15] 16.8% | viability, T/C [16] 14.8% | viability, T/C [17] 15.4% | viability, T/C [18] 15.6% | viability, T/C [19] 21.8% | viability, T/C [20] 15.9% | viability, T/C [21] 15.4% | viability, T/C [22] 16.2% | viability, T/C [23] 14.6% | viability, T/C [24] 10.9% | viability, T/C [25] 19.1% | viability, T/C [26] 17.5% | viability, T/C [27] 15.6% | viability, T/C [28] 14.2% | viability, T/C [29] 12.8% | viability, T/C [30] 12.3% | viability, T/C [31] 17% | viability, T/C [32] 16% | viability, T/C [33] 17.1% | viability, T/C [34] 14% | viability, T/C [35] 14.4% | viability, T/C [36] 13.1%

C=CC(=O)Nc1cc(Nc2nccc(-c3cn(C)c4ccccc34)n2)c(OC)cc1N(C)CCN(C)C + CCn1c(-c2cc(N3CCN(C)CC3)cnc2C(C)OC)c2c3cc(ccc31)-c1csc(n1)CC(NC(=O)C1CC1C)C(=O)N1CCCC(N1)C(=O)OCC(C)(C)C2
< 3.16 nM: IC50 (second compound 0.000949 µM) | IC50 (second compound 0.003 µM) | IC50 (second compound 0.00949 µM) | IC50 (second compound 0.03 µM) | IC50 (second compound 0.0949 µM) | IC50 (second compound 0.3 µM)
inactive: viability, T/C [37] 32.2% | viability, T/C [38] 25.2% | viability, T/C [39] 26.4% | viability, T/C [40] 21.6% | viability, T/C [41] 23.1% | viability, T/C [42] 24.7% | viability, T/C [43] 26.1% | viability, T/C [44] 20.3% | viability, T/C [45] 20.2% | viability, T/C [46] 17.2% | viability, T/C [47] 16.4% | viability, T/C [48] 18.9% | viability, T/C [49] 20.4% | viability, T/C [50] 17.9% | viability, T/C [51] 17% | viability, T/C [52] 14.1% | viability, T/C [53] 14.5% | viability, T/C [54] 17.1% | viability, T/C [55] 19.9% | viability, T/C [56] 18.6% | viability, T/C [57] 16.8% | viability, T/C [58] 14.4% | viability, T/C [59] 15.1% | viability, T/C [60] 15.6% | viability, T/C [61] 20% | viability, T/C [62] 17.4% | viability, T/C [63] 19.2% | viability, T/C [64] 16.9% | viability, T/C [65] 16.1% | viability, T/C [66] 18.7% | viability, T/C [67] 19.3% | viability, T/C [68] 20.9% | viability, T/C [69] 19.1% | viability, T/C [70] 16.5% | viability, T/C [71] 16.5% | viability, T/C [72] 20.8%

O=C(c1ccc(F)c(F)c1Nc1ccc(I)cc1F)N1CC(O)([C@@H]2CCCCN2)C1 + CCn1c(-c2cc(N3CCN(C)CC3)cnc2C(C)OC)c2c3cc(ccc31)-c1csc(n1)CC(NC(=O)C1CC1C)C(=O)N1CCCC(N1)C(=O)OCC(C)(C)C2
inactive: viability, T/C [37] 30.9% | viability, T/C [38] 27.3% | viability, T/C [39] 21.8% | viability, T/C [40] 20.4% | viability, T/C [41] 15% | viability, T/C [42] 14.4% | viability, T/C [43] 22.9% | viability, T/C [44] 19.1% | viability, T/C [45] 16.2% | viability, T/C [46] 13.3% | viability, T/C [47] 13.4% | viability, T/C [48] 15.1% | viability, T/C [49] 16% | viability, T/C [50] 14.8% | viability, T/C [51] 14.5% | viability, T/C [52] 11.9% | viability, T/C [53] 11.9% | viability, T/C [54] 13.6% | viability, T/C [55] 14.3% | viability, T/C [56] 13.4% | viability, T/C [57] 13.2% | viability, T/C [58] 13.8% | viability, T/C [59] 13.9% | viability, T/C [60] 14.9% | viability, T/C [61] 15.2% | viability, T/C [62] 16% | viability, T/C [63] 13.4% | viability, T/C [64] 13.8% | viability, T/C [65] 14.5% | viability, T/C [66] 15.3% | viability, T/C [67] 16.7% | viability, T/C [68] 14.9% | viability, T/C [69] 15% | viability, T/C [70] 15.1% | viability, T/C [71] 15.7% | viability, T/C [72] 15.6%
< 3.16 nM: IC50 (second compound 0.000949 µM) | IC50 (second compound 0.003 µM) | IC50 (second compound 0.00949 µM) | IC50 (second compound 0.03 µM) | IC50 (second compound 0.0949 µM) | IC50 (second compound 0.3 µM)
